The values below are quoted from earlier work in patent publication US20200253951A1, “COMBINATION OF AN […] AGENT WITH […]/OR DO[…] FOR USE IN PREVENTING/STOPPING OF AXIAL MYOPIA IN HUMAN” (priority 2016, published 2020).

The structures appear in SMILES notation.

In one series the test system is conjunctiva. Conditions: pediatric population, atropine 0,1%, 0,05% and 0,01%.
Another series deals with axial myopia. To be noted: one drop of 1% Atropine collirium at bedtime, chinese children, placebo controlled.

As to `CN1[C@@H]2CC[C@H]1C[C@@H](OC(=O)C(CO)c1ccccc1)C2` (some centres unmarked) [Atropine], the “subjects who developed ocular redness and itching” value in the series on conjunctiva is reported as “around 5%”. The “subjects in whom development of axial myopia was halted (stopping the elongation of the bulb)” value in the series on axial myopia was 90%.
